Key:
[1] = test system: Pfa1 Gpx4−/− overexpressing hFSP1 F360L; assay: Cell viability (Alamar blue), hFSP1 F360L; type: cell-based, murine
Method: (§1) Cell Lines. 4-hydroxytamoxifen (TAM)-inducible Gpx4^−/− murine immortalized fibroblasts (Pfa1) were reported previously. These cells harbor two loxP-flanked Gpx4 alleles and stably express TAM inducible Cre recombinase allowing the genetic deletion of Gpx4 at will. For all experiments using Gpx4^−/− the well were treated with 4-hydroxitamoxifen (TAM) 1 µM. All cells were cultured with were cultured in DMEM-high glucose (4.5 g glucose/L) with 10% fetal bovine serum (FBS), Glutamax, and 1% penicillin/streptomycin (Gibco, Thermo Fischer) at 37 °C with 5% CO2 and verified to be negative for mycoplasma.
(§2) Cell viability assays. Alamar Blue method: Cells were seeded on 96-well plates (2000 cells per well) and treated with the compounds RSL3, iFSP1 and (liproxstatin-1) after plating. Cell viability was assessed 48 h (unless stated otherwise) after treatment using Alamar Blue as an indicator of viable cells. Alamar blue solution was made by dissolving of 1 g resazurin sodium salt (Thermo Fischer) in 200 mL sterile PBS and sterile filtrated through a 0.22 µm filter. Stock solutions were stored at 4 °C. The working solution was made freshly by adding 200 µL of the stock solution to 25 mL growth media. After 2–4 h incubation time, viability was estimated by measuring the fluorescence using a 540/35 excitation filter and a 590/20 emission on a Spark® microplate reader (Tecan, Zürich, Switzerland).

[2] = test system: Pfa1 Gpx4−/− overexpressing hFSP1 Y296A/F360A; assay: Cell viability (Alamar blue), hFSP1 Y296A/F360A; type: cell-based, murine
Method: as §1, §2

[3] = test system: Pfa1 Gpx4−/− overexpressing mFSP1 L360F; assay: Cell viability (Alamar blue), mFSP1 L360F; type: cell-based, murine
Method: as §1, §2

Water solubility = type: physicochemical
[4] = test system: Pfa1 Gpx4−/− cells overexpressing human FSP1 (hFSP1); assay: Cell viability (Alamar blue), dose-response toxicity in Gpx4-knockout cells expressing hFSP1; type: cell-based, murine
Method: as §1, §2
Codon-optimized Mus musculus (mouse) FSP1 (NP_001034283.1) and Homo sapiens (Human) FSP1 (NP_001185625.1) were synthesized by IDT as gBlocks^TM and subcloned into p442-IRES-blast vectors. The chimera constructs were generated based on the pairwise alignment between the gene of Homo sapiens (Human) and the Mus musculus (Mouse), all the chimeric constructs contain the murine isoform with one region exchanged to the human isoform. […]

[5] = test system: Pfa1 Gpx4−/− cell line overexpressing hFSP1, mFSP1 and hFSP1 F360L mutants; assay: BODIPY 581/591 C11 oxidation (flow cytometry); type: cell-based, murine; conditions: iFSP1 3 µM for 3 h; all conditions, highest for hFSP1 WT
Method: In total, 150,000 cells per well were seeded on 6-well dishes one day prior to the experiment. […] Cells were incubated with C11-BODIPY (581/591) (1 μM) for 30 min at 37 °C before they were harvested by trypsinisation. Subsequently, cells were resuspended in 500 μL of fresh PBS (DPBS, Gibco) and analyzed using a 488-nm laser excitation laser and fluorescence recorded on a (FACS Canto II, BD Biosciences). Data was collected from the FL1 detector (C11-BODIPY, Invitrogen) with a 502LP and 530/30 BP filter. At least 20,000 events were analyzed per sample. Data was analyzed using FlowJo Software version 10.8.1.

[6] = test system: Pfa1 Gpx4−/− overexpressing mFSP1 K319Q; assay: Cell viability (Alamar blue), mFSP1 K319Q; type: cell-based, murine; conditions: Mus musculus, x axis iFSP1 (μM), read-out: IC50 (dose-response toxicity)
Method: as §1, §2

[7] = test system: Pfa1 Gpx4−/− overexpressing chimeric FSP1 C4; assay: Cell viability (Alamar blue), chimeric construct C4; type: cell-based, murine; conditions: Mus musculus; chimeric construct C4 (human residues 181 to 240); x axis iFSP1 (μM); read-out: IC50 (dose-response toxicity)
Method: as §1
as §2, with “Switzerland). […]” for “Switzerland).”

[8] = Mus musculus, x axis iFSP1 (μM), read-out: IC50 (dose-response toxicity)

Cc1ccc(-c2c(C#N)c(N)n3c(nc4ccccc43)c2C#N)cc1 [iFSP1]
capacity to induce ferroptosis [1]: completely abolished the capacity of iFSP1 to induce ferroptosis | IC50 [1, 8]: 6.18 µM | inhibitor activity (ferroptosis induction) [2]: abolishes the inhibitor activity | IC50 [2, 8]: 5.62 µM | iFSP1-mediated inhibition of FSP1 (ferroptosis induction) [3]: restored the iFSP1-mediated inhibition of mFSP1 | IC50 [3, 8]: 0.95 µM | water solubility (Water solubility): poor | IC50 ([4]; Mus musculus, hFSP1 WT, Δ curve (no Lip-1), Alamar blue, x axis iFSP1 (μM)): 0.45 µM | induction of ferroptosis ([4]; human isoform): induce ferroptosis | BODIPY-C11 oxidation induced by iFSP1 [5]: small increase | IC50 [6]: 5.62 µM | IC50 [7]: 8.96 µM

— paper PMC10119282, “Molecular characterization of AIFM2/FSP1 inhibition by iFSP1-like molecules” (Cell Death & Disease, 2023)
